The values that follow are results of earlier work, collected in PMC12308805, “Ultrahigh-Throughput Virtual Screening Strategies against PPI Targets: A Case Study of STAT Inhibitors” (Journal of Chemical Information and Modeling, 2025).

Structures are written as SMILES.

One data set has as its system STAT3. Conditions: sheet 6QHD_actives_decoys; retrospective screening set for STAT3 SH2 domain (PDB 6QHD); […]; ref DUD-E; cited from earlier work.
Take `CCCCCC[C@H]1C(=O)O[C@@H](C)[C@@H](NC(=O)c2cccc(NC=O)c2O)C(=O)O[C@@H](C)[C@H]1OC(=O)CCC` [Decoy385]: the Type result was “Inactive (Decoy)”.
Turning to `COc1cc(NS(=O)(=O)c2ccc(NC(=S)NC(=O)c3cc(Cl)cc(Cl)c3)cc2)ncn1` [Decoy392], the Type result is on record as “Inactive (Decoy)”.
Turning to `C[C@@H](O)CC(=O)SCCNC(=O)CCNC(=O)[C@@H](O)C(C)(C)CO[P@](=O)(O)O[P@](=O)(O)OC[C@H]1O[C@@H](n2cnc3c(N)ncnc32)[C@@H](O)[C@H]1OP(=O)(O)O` [Decoy404], the Type entry is “Inactive (Decoy)”.
For `Nn1c(SCC(=O)Nc2ccc(S(=O)(=O)Nc3nccs3)cc2)nnc1-c1ccncc1` [Decoy406], the Type entry was “Inactive (Decoy)”.
With `CCOC(=O)[C@@](NC(=O)Nc1ccc(S(=O)(=O)Nc2nnc(SCC)s2)cc1)(c1ccc(F)cc1)C(F)(F)F` [Decoy418], the Type entry was “Inactive (Decoy)”.
As to `O=C(CCC(=O)Nc1ccc(S(=O)(=O)Nc2nccs2)cc1)Nc1ccc(S(=O)(=O)Nc2nccs2)cc1` [Decoy422], the Type entry is “Inactive (Decoy)”.
As to `COc1cc(NS(=O)(=O)c2ccc(NC(=O)CCCCC(=O)Nc3ccc(S(=O)(=O)/N=c4/cc(OC)nc(OC)[nH]4)cc3)cc2)nc(OC)n1` [Decoy429], the Type entry was “Inactive (Decoy)”.
Regarding `COC1=C[C@]23CCCN2CCc2cc4c(cc2[C@@H]3[C@@H]1OC(=O)[C@@](O)(CCCC(C)(C)O)CC(=O)O)OCO4` [Decoy432], the Type result was “Inactive (Decoy)”.

The data set is the same for the next values; noted with them: sheet 6QHD_actives_decoys; retrospective screening set for STAT3 SH2 domain (PDB 6QHD); decoys generated with DUD-E and presumed inactive, not tested; ref DUD-E; cited from earlier work.
In the case of `CC(=O)N[C@@H]1[C@H]([C@H](O)[C@H](O)CO)O[C@@](O[C@H]2[C@@H](O)[C@@H](O[C@@H]([C@@H](O[C@@H]3O[C@@H](C)[C@H](O)[C@H](O)[C@@H]3O)[C@H](O)C=O)[C@H](O)CO)O[C@@H](CO)[C@H]2O)(C(=O)O)C[C@@H]1O` [Decoy382], the Type entry is listed as “Inactive (Decoy)”.
Regarding `Nc1ccc(/N=N\c2ccc3cc(S(=O)(=O)O)c(/N=N/c4ccc(/N=N/c5ccc(N)cc5N)c(S(=O)(=O)O)c4)c(O)c3c2)c(N)c1` [Decoy383], the Type result is listed as “Inactive (Decoy)”.
Take `NCCCCCCNc1nc2c(N)ncnc2n1[C@H]1O[C@@H](CO[P@](=O)(O)O[P@](=O)(O)OP(=O)(O)O)[C@@H](O)[C@H]1O` [Decoy384]: the Type entry is on record as “Inactive (Decoy)”.
With `COc1cc(NC(=S)/N=C(/NCCCN2CCOCC2)Nc2nc(C)cc(C)n2)cc(OC)c1OC` [Decoy386], the Type result is listed as “Inactive (Decoy)”.
As to `O=C(O)c1ccccc1NS(=O)(=O)c1ccc(NCCCN2CCOCC2)c([N+](=O)[O-])c1` [Decoy387], the Type result is “Inactive (Decoy)”.
As to `COc1cc(NC(=O)COC(=O)c2cc(OC)c(OC)cc2NC(=O)c2ccco2)cc(OC)c1` [Decoy388], the Type result is on record as “Inactive (Decoy)”.
In the case of `[H]/N=C1/[C@@H](C)[C@@H](O)[C@@](C)(O)[C@@H](CC)OC(=O)[C@H](C)[C@H](O[C@@H]2C[C@@](C)(OC)[C@H](O)[C@H](C)O2)[C@@H](C)[C@H](O[C@H]2O[C@@H](C)C[C@@H](N(C)C)[C@H]2O)[C@@](C)(O)C[C@@H]1C` [Decoy389], the Type entry is “Inactive (Decoy)”.
Regarding `Cc1n[nH]c2nc(SCC(=O)NCCc3ccc(S(N)(=O)=O)cc3)[n+](-c3ccc(Br)cc3)c(N)c12` [Decoy390], the Type result is “Inactive (Decoy)”.
With `NS(=O)(=O)c1ccc(NC(=O)CSc2ccc(NC(=O)c3cccc([N+](=O)[O-])c3)cc2)cc1` [Decoy391], the Type result is “Inactive (Decoy)”.
As to `COc1cc2cc(Oc3ccc(CCC(=O)O)c(O[C@@H]4O[C@H](CO)[C@@H](O)[C@H](O)[C@H]4O)c3)c(=O)oc2cc1O` [Decoy393], the Type result is recorded as “Inactive (Decoy)”.
`COC(=O)c1sc(NC(=O)c2ccc(C(=O)Nc3sc(C(=O)OC)c(C)c3C(=O)OC)cc2)c(C(=O)OC)c1C` [Decoy394]: the Type result was “Inactive (Decoy)”.
As to `CCOC(=O)C1=C(CNc2cc(S(=O)(=O)N(CC)CC)ccc2OC)NC(=O)N[C@H]1c1cc(C)ccc1C` [Decoy395], the Type result was “Inactive (Decoy)”.
As for `COc1cc([C@@H]2OC[C@@]3(O)[C@@H](c4ccc(O[C@@H]5O[C@H](CO)[C@@H](O)[C@H](O)[C@H]5O)c(OC)c4)OC[C@@]23O)ccc1O` [Decoy396], the Type result is “Inactive (Decoy)”.
Take `O=C(O)c1[nH]nc(-c2ccc(O[C@H]3O[C@@H](CO)[C@@H](O)[C@@H](O)[C@H]3O)cc2O)c1-c1ccc2c(c1)OCCO2` [Decoy397]: the Type entry is given as “Inactive (Decoy)”.
Take `CCN(CC)S(=O)(=O)c1ccc(NC(=O)CSc2nnc(N/N=C/c3cccc(O)c3)n2N)cc1` [Decoy398]: the Type result is reported as “Inactive (Decoy)”.
With `Cc1cc(C)nc(N/C(=N\C(=S)NCCCN2CCOCC2)Nc2ccc(Cn3cncn3)cc2)n1` [Decoy399], the Type result is listed as “Inactive (Decoy)”.
`NC(=O)CN(CC(N)=O)c1ccc(F)cc1OCCOc1cc(F)ccc1N(CC(N)=O)CC(N)=O` [Decoy400]: the Type result is “Inactive (Decoy)”.
Consider `CCOC(=O)CNS(=O)(=O)c1cc(-c2nnc(Nc3ccc(OCC(=O)NC)cc3)c3ccccc23)ccc1C` [Decoy401], for which the Type entry is recorded as “Inactive (Decoy)”.
`Nc1ncnc2c1ncn2[C@@H]1O[C@@H](CO[P@@](=O)(O)O[P@@](=O)(O)OC[C@H](O)[C@H](O)[C@H](O)C=O)[C@@H](O)[C@H]1O` [Decoy402]: the Type entry was “Inactive (Decoy)”.
Regarding `Nc1ncnc2c1ncn2[C@H]1O[C@@H](CO[P@@](=O)(O)O[P@@](=O)(O)OC[C@H](O)[C@H](O)[C@H](O)C=O)[C@@H](O)[C@@H]1O` [Decoy403], the Type entry is recorded as “Inactive (Decoy)”.
For the compound `CC(=O)N[C@@H]1[C@@H](OC(C)=O)[C@H](OC(C)=O)[C@@H](COC(C)=O)O[C@H]1Sc1nnc(COc2ccccc2C)n1C1CCCC1` [Decoy405], the Type result is reported as “Inactive (Decoy)”.
Regarding `CC(=O)O[C@H]1[C@@H](O)[C@H](CO)O[C@H](O[C@@H](/C=N\C23CC4CC(CC(C4)C2)C3)[C@@H](CO)O[C@H](O)/C=N/C23CC4CC(CC(C4)C2)C3)[C@@H]1O` [Decoy407], the Type entry is reported as “Inactive (Decoy)”.
In the case of `CC(=O)O[C@@H]1[C@@H](O)[C@@H](O[C@@H](/C=N\C23CN4CN(CN(C4)C2)C3)[C@@H](CO)O[C@H](O)/C=N/C23CN4CN(CN(C4)C2)C3)O[C@@H](CO)[C@H]1O` [Decoy408], the Type result is “Inactive (Decoy)”.
Take `CC1=C(/C(O)=N/c2ccc(S(N)(=O)=O)cc2)[C@H](c2ccco2)C(C#N)=C(SCC(=O)Nc2cccc(C(F)(F)F)c2)N1` [Decoy409]: the Type result is reported as “Inactive (Decoy)”.
In the case of `CC(=O)O[C@@H]1[C@@H](O)[C@@H](O[C@@H](C/N=C/c2ccc(O)c3ccccc23)[C@@H](CO)O[C@H](O)C/N=C/c2ccc(O)c3ccccc23)O[C@@H](CO)[C@H]1O` [Decoy410], the Type result was “Inactive (Decoy)”.
For `COc1c([C@@H]2OC[C@H](OC(C)=O)[C@@H](OC(C)=O)[C@H]2OC(C)=O)c(O)cc2oc(-c3ccc(O[C@H]4O[C@@H](CO)[C@@H](O)[C@@H](O)[C@H]4O)cc3)cc(=O)c12` [Decoy411], the Type result is given as “Inactive (Decoy)”.
For the compound `COc1ccc(N([C@@H](C)C(=O)Nc2ccc(S(=O)(=O)Nc3ccc(Cl)c(C(F)(F)F)c3)cc2)S(C)(=O)=O)cc1` [Decoy412], the Type result is “Inactive (Decoy)”.
Regarding `CC(=O)OC[C@@H]1O[C@H](O)[C@H](OC(C)=O)[C@H](OC(C)=O)[C@@H]1O[C@@H]1O[C@H](COC(C)=O)[C@@H](O)[C@H](OC(C)=O)[C@@H]1OC(C)=O` [Decoy413], the Type entry is given as “Inactive (Decoy)”.
As to `CCSc1nnc(/N=C(\O)CSc2n[nH]c(N/N=C/c3cn(C)nc3C)n2)s1` [Decoy414], the Type result is on record as “Inactive (Decoy)”.
Consider `CCCCn1nc(NC(=O)c2cc(OCC)c(OCC)c(OCC)c2)c2cc3cc(C)ccc3nc21` [Decoy415], for which the Type entry is on record as “Inactive (Decoy)”.
With `CCN(CC)CCCNC(=S)N(CCN1CCOCC1)Cc1cc2cc3c(cc2[nH]c1=O)OCCO3` [Decoy416], the Type entry is reported as “Inactive (Decoy)”.
As for `CC(C)(CC(=O)O)CC(=O)N1Cc2nc[nH]c2C[C@H]1c1nc(-c2ccc(F)c(Cl)c2)no1` [Decoy417], the Type entry was “Inactive (Decoy)”.
Consider `CCCCCCCCCC(=O)O[C@H]1[C@@H](O[C@@]2(CO)O[C@@H](CO)[C@@H](O)[C@H]2O)O[C@@H](CO)[C@@H](OC(=O)C(C)C)[C@@H]1OC(=O)C(C)C` [Decoy419], for which the Type result is “Inactive (Decoy)”.
Regarding `CCCCCCCCCC(=O)O[C@@H]1[C@@H](O[C@@]2(CO)O[C@@H](CO)[C@@H](O)[C@H]2O)O[C@@H](CO)[C@@H](OC(=O)C(C)C)[C@H]1OC(=O)C(C)C` [Decoy420], the Type result is reported as “Inactive (Decoy)”.
For the compound `O=C(CCSc1n[nH]c(N/N=C/c2cccc(Br)c2)n1)Nc1ccccc1[N+](=O)[O-]` [Decoy421], the Type entry is recorded as “Inactive (Decoy)”.
Regarding `CCCCCOc1ccc([C@@H]2C(C(=O)c3c(C)nc4ccccn34)=C(O)C(=O)N2CCN(C)C)cc1OCC` [Decoy423], the Type result is recorded as “Inactive (Decoy)”.
For the compound `Cc1ccc(S(=O)(=O)OC[C@H](OS(=O)(=O)c2ccc(C)cc2)[C@H](O)[C@H](O)[C@@H](COS(=O)(=O)c2ccc(C)cc2)OS(=O)(=O)c2ccc(C)cc2)cc1` [Decoy424], the Type entry is “Inactive (Decoy)”.
On to `CC(=O)O[C@H]([C@H](OC(C)=O)[C@H](OC(C)=O)C(=O)NC1CCCCCC1)[C@H](OC(C)=O)C(=O)NC1CCCCCC1` [Decoy425], for which the Type result is reported as “Inactive (Decoy)”.
In the case of `CC(=O)O[C@H]([C@@H](OC(C)=O)[C@H](OC(C)=O)C(=O)NC1CCCCCC1)[C@H](OC(C)=O)C(=O)NC1CCCCCC1` [Decoy426], the Type result is “Inactive (Decoy)”.
`COC(=O)c1sc(NC(=O)CCCS(=O)(=O)c2nc(-c3ccccc3OC)cc(C(F)(F)F)n2)c(C(N)=O)c1C` [Decoy427]: the Type result is listed as “Inactive (Decoy)”.
On to `O=c1c(-c2ccc(O[C@@H]3O[C@H](CO)[C@@H](O)[C@H](O)[C@H]3O)cc2)coc2c(CN3CCCC3)c(O)c(CN3CCCC3)c(O)c12` [Decoy428], for which the Type entry is reported as “Inactive (Decoy)”.
Regarding `Cc1ccc(N(C[C@H](O)[C@@H](O)[C@H](O)CO)/N=N/c2cccc(S(=O)(=O)O)c2)cc1C` [Decoy430], the Type entry was “Inactive (Decoy)”.
As to `CCN[C@@H](c1ccc(I)cc1)c1ccc(OC)c(Br)c1` [Decoy431], the Type result was “Inactive (Decoy)”.
